Laboratory results: patent US20140140931A1, “ANTIOXIDANT, NEUROPROTECTIVE AND ANTINEOPLASTIC NANOPARTICLES COMPRISING A THERAPEUTIC AGENT ON AN AMPHIPHILIC SPACER OR AN AMPHIPHILIC POLYMER” (CEDARS-SINAI MEDICAL CENTER, priority 2011, published 2014)

Tests used:
[1] = system: P-glycoprotein (Pgp); settings: cited from earlier work
[2] = cited from earlier work
[3] = 30 minutes after administration; cited from earlier work
[4] = system: intracranial U87 MG tumor xenograft; test: Survival study of mice with intracranial U87 MG GBM xenograft; assay type: in vivo, athymic nu/nu mice; settings: i.v. every three days for 4 weeks from day 7 (16 mg/kg/day CPT-TEG-ALA)
Description: All animal studies were performed according to Cedars-Sinai Medical Center Institutional Animal Care and Use Committee protocols. Female 6- to 8-week-old athymic nu/nu mice (Charles River Laboratories) were used for all experiments. […] For Intracranial tumor model, mice underwent intracranial stereotactic implantation of U87 MG cells. Mice were anesthetized using a ketamine and dexmedetomidine combination as a single intraperitoneal injection. 10^5 U87 MG cells suspended in 2 μl of PBS were implanted in the right frontal region of the brain using a Hamilton syringe. The animals received intraperitoneal injection of atipamezole to reverse the dexmedetomidine effect. A single subcutaneous injection of buprenorphine was administered for pain relief.
Two perpendicular diameters of the tumor are measured, and the volume is calculated according to the equation: V (mm^3)=L (mm)×W^2 (mm^2)/2, where L is the longest diameter and W is the diameter perpendicular to L. In the intracranial model, the animals (n=8) received intravenous (tail vein) injection of nanoprodrugs (16 mg/kg/day CPT-TEG-ALA) beginning 7 days after tumor implantation every three days for 4 weeks. […] As control, animals received injection of irinotecan, α-tocopherol nanosuspension, and saline
For mouse survival study, log-rank statistical analysis was performed. […]

Row | Compound | Pgp substrate [1] | Solubility in water [2] | Lactone form hydrolyzed to an open ring [3] [%] | Median survival time [4] [days]
1 | CCc1c2c(nc3ccc(O)cc13)-c1cc3c(c(=O)n1C2)COC(=O)[C@]3(O)CC [SN38] | substrates |  |  | 
2 | CC[C@@]1(O)C(=O)OCc2c1cc1n(c2=O)Cc2cc3ccccc3nc2-1 [camptothecin, (S)-4-ethyl-4-hydroxy-1H-pyran-[3′,4′:6, 7]indolizino[1,2-b]quinoline-3,14(4H, 12H)-dione] |  | essentially insoluble in water | 50 | 
3 | CCc1c2c(nc3ccc(OC(=O)N4CCC(N5CCCCC5)CC4)cc13)-c1cc3c(c(=O)n1C2)COC(=O)[C@]3(O)CC [irinotecan] | substrates |  |  | 41.0
